System: retinal cells expressing the inhibitory hM4Di DREADD
Test: Electroretinography (ERG) after CNO in rats expressing hM4Di DREADD in retina
Format: in vivo

C[N+]1([O-])CCN(C2=Nc3cc(Cl)ccc3Nc3ccccc32)CC1 [CNO, clozapine N-oxide]
ERG wave (CNO by intraperitoneal injection, 20 minutes after, rats with AAV-hSyn-hM4Di (FIG. 2C)): inhibition of the ERG wave | ERG, function in retinal cells (CNO eye drops, 10 minutes and 20 minutes after, rats with AAV-hSyn-hM4Di (FIG. 2D)): decreased function in retinal cells at both timepoints | eliciting DREADD function, eye drops versus systemic delivery (ERG, CNO via eye drops compared with systemic delivery): at least as successful

— patent publication US12630602B2, “Methods and compositions for treating diseases and disorders of the nervous system” (Rutgers, The State University of New Jersey, priority 2016, dated 2026)
